Experimental findings from patent US20240199587A1, “HETEROCYCLIC COMPOUNDS” (Hoffmann-La Roche Inc., priority 2021, published 2024) are described below.

Molecules are shown by their SMILES.

In this experiment the target is T1, MAGL (Homo sapiens, UniProt Q99685).
T1 sequence (Q99685 1-303): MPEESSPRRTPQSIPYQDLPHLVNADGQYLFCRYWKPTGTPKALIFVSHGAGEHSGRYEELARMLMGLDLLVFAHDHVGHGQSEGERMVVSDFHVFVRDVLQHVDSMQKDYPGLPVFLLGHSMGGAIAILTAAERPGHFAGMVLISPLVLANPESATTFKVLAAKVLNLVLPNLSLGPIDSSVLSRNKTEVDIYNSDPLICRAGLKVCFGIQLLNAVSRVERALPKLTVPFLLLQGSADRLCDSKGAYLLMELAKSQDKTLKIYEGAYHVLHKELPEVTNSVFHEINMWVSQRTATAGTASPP
Kind of experiment: 2-AG assay (MAGL inhibitory activity, hydrolysis of 2-arachidonoylglycerol to arachidonic acid followed by mass spectrometry). The settings on record: 8 μM 2-arachidonoylglycerol, 15 min pre-incubation, 30 min incubation at RT, RapidFire MS readout. Format: biochemical. Summed up:
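Arachidonic acid released from 8 μM 2-arachidonoylglycerol was quantified by online SPE triple-quadrupole MS (negative ESI, 303.1→259.1), normalised to d8-arachidonic acid internal standard. Reaction ran 30 min at RT after 15 min RT compound pre-incubation with […] MAGL in TRIS/EDTA/Tween-20 buffer, 2.5% DMSO.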
`O=C(N1CC2(CC(n3cnc(C4CC4)n3)C2)C1)C12CCC(COCC3(C(F)(F)F)CC3)(CC1)CC2` [Example 155, [6-(3-cyclopropyl-1,2,4-triazol-1-yl)-2-azaspiro[3.3]heptan-2-yl]−[4-[[1-(trifluoromethyl)cyclopropyl]methoxymethyl]-1-bicyclo[2.2.2]octanyl]methanone]: the IC50 was 20.8 nM. The result for `CCc1ncn(C2CC3(C2)CN(C(=O)c2ccc(-c4noc(C(C)(C)C)n4)cc2)C3)n1` [Example 156, [4-(5-tert-butyl-1,2,4-oxadiazol-3-yl)phenyl]−[6-(3-ethyl-1,2,4-triazol-1-yl)-2-azaspiro[3.3]heptan-2-yl]methanone] reads 33.9 nM. The result for `CCc1cn(C2CC3(C2)CN(C(=O)c2ccc(-c4noc(C(C)(C)C)n4)cc2)C3)cn1` [Example 157, [4-(5-tert-butyl-1,2,4-oxadiazol-3-yl)phenyl]-[6-(4-ethylimidazol-1-yl)-2-azaspiro[3.3]heptan-2-yl]methanone] reads 43.7 nM; that for `CC(C)(C)c1nc(-c2ccc(C(=O)N3CC4(CC(n5cnc(C(F)(F)F)c5)C4)C3)cc2)no1` [Example 158, [4-(5-tert-butyl-1,2,4-oxadiazol-3-yl)phenyl]-[6-[4-(trifluoromethyl)imidazol-1-yl]-2-azaspiro[3.3]heptan-2-yl]methanone], 69.1 nM. For `CC(C)(C)c1nc(-c2ccc(C(=O)N3CC4(CC(n5cnc(Cl)c5)C4)C3)cc2)no1` [Example 159, [4-(5-tert-butyl-1,2,4-oxadiazol-3-yl)phenyl]-[6-(4-chloroimidazol-1-yl)-2-azaspiro[3.3]heptan-2-yl]methanone], it took 315 nM to reach half-maximal inhibition (IC50). The result for `CC(C)(C)c1nc(-c2ccc(C(=O)N3CC4(CC(n5cnc(C#N)c5)C4)C3)cc2)no1` [Example 160, 1-[2-[4-(5-tert-butyl-1,2,4-oxadiazol-3-yl)benzoyl]-2-azaspiro[3.3]heptan-6-yl]imidazole-4-carbonitrile] reads 1010 nM; that for `CC(C)(C)c1nc(C23CC(C(=O)N4CC5(CC(n6cnc(C7CC7)c6)C5)C4)(C2)C3)no1` [Example 162, [3-(5-tert-butyl-1,2,4-oxadiazol-3-yl)-1-bicyclo[1.1.1]pentanyl]-[6-(4-cyclopropylimidazol-1-yl)-2-azaspiro[3.3]heptan-2-yl]methanone], 475 nM.

`CC(C)(C)c1nc(C23CC(C(=O)N4CC5(CC(n6cnc(C7CC7)n6)C5)C4)(C2)C3)no1` [Example 163, [3-(5-tert-butyl-1,2,4-oxadiazol-3-yl)-1-bicyclo[1.1.1]pentanyl]-[6-(3-cyclopropyl-1,2,4-triazol-1-yl)-2-azaspiro[3.3]heptan-2-yl]methanone] yielded an IC50 of 192 nM. Compared with the last compound, the IC50 is about 2.5-fold lower. As for `O=C(N1CC(c2cn(C3(C(F)(F)F)CC3)nn2)C1)N1CC2(CC(n3cnc(C4CC4)n3)C2)C1` [Example 164, [6-(3-cyclopropyl-1,2,4-triazol-1-yl)-2-azaspiro[3.3]heptan-2-yl]-[3-[1-[1-(trifluoromethyl)cyclo-propyl]triazol-4-yl]azetidin-1-yl]methanone], the figure is 64.6 nM; as for `O=C(N1CC(n2cc(OCC(F)(F)F)cn2)C1)N1CC2(CC(n3cnc(C4CC4)n3)C2)C1` [Example 165, [6-(3-cyclopropyl-1,2,4-triazol-1-yl)-2-azaspiro[3.3]heptan-2-yl]-[3-[4-(2,2,2-trifluoroethoxy)pyrazol-1-yl]azetidin-1-yl]methanone], 102 nM. The result for `O=C(N1CC(c2nc(C3(C(F)(F)F)CC3)no2)C1)N1CC2(CC(n3cnc(C4CC4)n3)C2)C1` [Example 166, [6-(3-cyclopropyl-1,2,4-triazol-1-yl)-2-azaspiro[3.3]heptan-2-yl]-[3-[3-[1-(trifluoromethyl)cyclo-propyl]-1,2,4-oxadiazol-5-yl]azetidin-1-yl]methanone] reads 97.9 nM. As for `O=C(N1CC(c2cn(C3(C(F)(F)F)COC3)nn2)C1)N1CC2(CC(n3cnc(C4CC4)n3)C2)C1` [Example 167, [6-(3-cyclopropyl-1,2,4-triazol-1-yl)-2-azaspiro[3.3]heptan-2-yl]-[3-[1-[3-(trifluoromethyl)oxetan-3-yl]triazol-4-yl]azetidin-1-yl]methanone], the figure is 85.5 nM.

`CC(C)(C)c1nnc(-c2ccc(C(=O)N3CC4(CC(n5cnc(Cl)n5)C4)C3)cc2)o1` [Example 168, [4-(5-tert-butyl-1,3,4-oxadiazol-2-yl)phenyl]-[6-(3-chloro-1,2,4-triazol-1-yl)-2-azaspiro[3.3]heptan-2-yl]methanone] registered an IC50 of 1490 nM. As for `CC(C)(C)c1nnc(-c2ccc(C(=O)N3CC4(CC(n5ccc(C6CC6)n5)C4)C3)cc2)o1` [Example 169, [4-(5-tert-butyl-1,3,4-oxadiazol-2-yl)phenyl]-[6-(3-cyclopropylpyrazol-1-yl)-2-azaspiro[3.3]heptan-2-yl]methanone], the figure is 659 nM; as for `CC(C)(C)n1cc(-c2ccc(C(=O)N3CC4(CC(n5cnc(Cl)n5)C4)C3)cc2)cn1` [Example 170, [4-(1-tert-butylpyrazol-4-yl)phenyl]-[6-(3-chloro-1,2,4-triazol-1-yl)-2-azaspiro[3.3]heptan-2-yl]methanone], 286 nM.

As for `CC(C)(C)c1nc(-c2ccc(C(=O)N3CC4(CC(n5ccc(C6CC6)n5)C4)C3)cc2)no1` [Example 171, [4-(5-tert-butyl-1,2,4-oxadiazol-3-yl)phenyl]-[6-(3-cyclopropylpyrazol-1-yl)-2-azaspiro[3.3]heptan-2-yl]methanone], half-maximal inhibition (IC50) required 96.4 nM. As for `CC(C)(C)c1nc(-c2ccc(C(=O)N3CC4(CC(n5cnc(Cl)n5)C4)C3)cc2)no1` [Example 172, [4-(5-tert-butyl-1,2,4-oxadiazol-3-yl)phenyl]-[6-(3-chloro-1,2,4-triazol-1-yl)-2-azaspiro[3.3]heptan-2-yl]methanone], the figure is 170 nM.

`O=C(C1CC(COCC2(C(F)(F)F)CC2)C1)N1CC2(CC(n3cnc(C4CC4)n3)C2)C1` (stereo not drawn) [Example 173, [6-(3-cyclopropyl-1,2,4-triazol-1-yl)-2-azaspiro[3.3]heptan-2-yl]−[3-[[1-(trifluoromethyl)cyclopropyl]methoxymethyl]cyclobutyl]methanone] displayed an IC50 of 546 nM. The result for `Cc1cc(C(=O)N2CC3(CC(n4cnc(Cl)n4)C3)C2)cnc1OCC1(C(F)(F)F)CC1` [Example 174, [6-(3-chloro-1,2,4-triazol-1-yl)-2-azaspiro[3.3]heptan-2-yl]-[5-methyl-6-[[1-(trifluoromethyl)cyclopropyl]methoxy]-3-pyridyl]methanone] reads 183 nM; that for `Cc1cc(C(=O)N2CC3(CC(n4cnc(Cl)n4)C3)C2)cnc1OC(C)(C)C(F)(F)F` [Example 175, [6-(3-chloro-1,2,4-triazol-1-yl)-2-azaspiro[3.3]heptan-2-yl]-[5-methyl-6-(2,2,2-trifluoro-1,1-dimethyl-ethoxy)-3-pyridyl]methanone], 221 nM.

`O=C(N1CC(OCc2ccc(C(F)(F)F)cc2)C1)N1CC2(CC(n3cnc(N4CCC4)n3)C2)C1` [Example 177, (6-(3-(azetidin-1-yl)-1H-1,2,4-triazol-1-yl)-2-azaspiro[3.3]heptan-2-yl)(3-((4-(trifluoromethyl)benzyl)oxy)azetidin-1-yl)methanone] yielded an IC50 of 141 nM. Compared with the last compound, the IC50 is about 1.6-fold lower. Take `CC(C)(C)c1nc(-c2ccc(C(=O)N3CC4(C3)CC(O)(c3cnc(C5CC5)o3)C4)cc2)no1` [Example 179, [4-(5-tert-butyl-1,2,4-oxadiazol-3-yl)phenyl]−[6-(2-cyclopropyloxazol-5-yl)-6-hydroxy-2-azaspiro[3.3]heptan-2-yl]methanone]: the IC50 came to 1030 nM. Compound `CC(C)(C)c1nc(-c2ccc(C(=O)N3CC4(CC(n5nccc5C5CC5)C4)C3)cc2)no1` [Example 180, [4-(5-tert-butyl-1,2,4-oxadiazol-3-yl)phenyl]-[6-(5-cyclopropylpyrazol-1-yl)-2-azaspiro[3.3]heptan-2-yl]methanone] had an IC50 of 4690 nM. Compared with the last compound, the IC50 is about 4.6-fold higher. The result for `CC(C)(C)n1cc(C2CN(C(=O)N3CC4(CC(n5cnc(C6CC6)n5)C4)C3)C2)cn1` [Example 181, [3-(1-tert-butylpyrazol-4-yl)azetidin-1-yl]−[6-(3-cyclopropyl-1,2,4-triazol-1-yl)-2-azaspiro[3.3]heptan-2-yl]methanone] reads 4610 nM.

Consider `Cc1cc(C2CN(C(=O)N3CC4(CC(n5cnc(C6CC6)n5)C4)C3)C2)ccc1OC(F)(F)F` [Example 182, [6-(3-cyclopropyl-1,2,4-triazol-1-yl)-2-azaspiro[3.3]heptan-2-yl]-[3-[3-methyl-4-(trifluoromethoxy)phenyl]azetidin-1-yl]methanone], for which it took 2580 nM to reach half-maximal inhibition (IC50). Compared with the last compound, the IC50 is about 1.8-fold lower. Regarding `O=C(N1CC(Oc2ccc(C3CC3)cc2)C1)N1CC2(CC(n3cnc(C4CC4)n3)C2)C1` [Example 183, (6-(3-cyclopropyl-1H-1,2,4-triazol-1-yl)-2-azaspiro[3.3]heptan-2-yl)(3-(4-cyclopropylphenoxy)azetidin-1-yl)methanone], half-maximal inhibition (IC50) was put at 0.1 nM. In the case of `O=C(N1CC2(CC(Cc3ccc(F)cc3F)C2)C1)N1CC2(CC(n3cnc(C4CCC4)n3)C2)C1` [Example 184, [6-(3-cyclobutyl-1,2,4-triazol-1-yl)-2-azaspiro[3.3]heptan-2-yl]-[6-[(2,4-difluorophenyl)methyl]-2-azaspiro[3.3]heptan-2-yl]methanone], the IC50 stood at 0.1 nM. That is a sub-nanomolar value.
